Reference: patent US6444664B1, “Method for controlling the plasma level of lipoproteins to treat alzheimeris disease” (Nederlandse Organisatie voor Toegepast - Natuurweten …, priority 1997, dated 2002)
Read-outs that look alike come from different tables or passages of the source.

Key:
[1] = test system: apo A-I; experiment: Apo A-I synthesis by cultured cynomolgus (simian) hepatocytes, ELISA of medium; assay type: cell-based, cynomolgus monkey; settings: culture period 48 h to 72 h
[2] = test system: apo(a); experiment: Apo(a) synthesis by cultured cynomolgus (simian) hepatocytes, ELISA of medium; assay type: cell-based, cynomolgus monkey; settings: culture period 48 h to 72 h
[3] = test system: apo B-100; experiment: Apo B-100 synthesis by cultured cynomolgus (simian) hepatocytes, ELISA of medium; assay type: cell-based, cynomolgus monkey; settings: culture period 48 h to 72 h
[4] = test system: lp(a); settings: cited from earlier work
[5] = test system: apo(a); experiment: Apo(a) synthesis by cultured human hepatocytes, ELISA of medium; assay type: cell-based; settings: culture period 48 h to 72 h
[6] = test system: apo(a) mRNA; experiment: Apo(a) mRNA levels in cynomolgus hepatocytes, RNA hybridization; assay type: cell-based, cynomolgus monkey; settings: 100 μM, cultured 48 h
Experimental: (§1) Total RNA was isolated from cynomolgus hepatocytes, cultured for 48 h in the presence or absence of the compounds, by the method of Chomczynski & Sacchi (33). After washing the RNA pellets with 70% (v/v) ethanol, RNA samples were dissolved in water. The RNA concentration in each sample was determined spectrophotometrically, assuming that one A260 unit corresponds with 40 μg RNA/mL. Equal amounts of total RNA (10 μg) from different incubations were fractionated by, elcctrophoresis in a 0.8% (w/v) agarose gel containing 0.27 M formaldehyde, and transferred to Hybond-N+ (Amershamn) in accordance with the manufacturer's instructions and UV cross-linked. Probes, labelling conditions and hybridization were performed as described previously in detail (25).
(§2) Apo(a) mRNAs were detected using a kringle IV synthetic double-stranded probe of 75 nucleotides with the sense sequence: GGGAATTCGAACCTGCCAAGCTTGGTCATCTATGACACCACACTCGCATAGTCGGACCCC AGAATAAAGCTTGGG, based on the sequence published by McLean et al (34). This probe was labelled by the random primer method according to Megaprime™ DNA labelling systems (Amersham). After hybridization, the blots were washed twice with 2×SSC/1% SDS (1×SSC=0.15 mol/L NaCl/0.015 mol/L sodium citrate, pH 7.0) and twice with 1×SSC/1% SDS for 30 min at 65° C. The blots were exposed to a Fuji imaging plate type BAS-MP for 1 to 24 h. The relative amounts of mRNA were quantified using a phospho-imager (Fuji Fujix BAS 1000) and the computer programs BAS-reader version 2.8 and TINA version 2.08 c.
(§3) Data shown in table 2 are obtained from measurements using RNA isolated from hepatocytes cultured for 48 h with or without the compounds.

[7] = test system: apo A-I mRNA; experiment: Apo A-I mRNA levels in cynomolgus hepatocytes, RNA hybridization; assay type: cell-based, cynomolgus monkey; settings: 100 μM, cultured 48 h
Experimental: as §1, §2, §3

[8] = test system: apo(a) mRNA; experiment: Apo(a) mRNA levels in human hepatocytes, RNA hybridization; assay type: cell-based; settings: 100 μM, cultured 48 h
Experimental: as §1, §2, §3

[9] = test system: apo A-I mRNA; experiment: Apo A-I mRNA levels in human hepatocytes, RNA hybridization; assay type: cell-based; settings: 100 μM, cultured 48 h
[10] = test system: apo B-100; experiment: Apo B-100 synthesis by cultured human hepatocytes, ELISA of medium; assay type: cell-based; settings: culture period 48 h to 72 h
[11] = test system: apo A-I; experiment: Apo A-I synthesis by cultured human hepatocytes, ELISA of medium; assay type: cell-based; settings: culture period 48 h to 72 h

Structure (SMILES): Cc1nnc2n1-c1ccc(Cl)cc1C(c1ccccc1)=NC2C (stereo not shown) [Azepine 3]
- Apo A-I synthesis ([1]; 100 μM): 359 ± 74 (3) % of control
- Apo(a) synthesis ([2]; 100 μM): 42 ± 20 (3) % of control
- Apo B-100 synthesis ([3]; 100 μM): 102 ± 32 (2) % of control

Structure (SMILES): COc1cc([C@@H]2OC[C@@H](c3cc(OC)c(OC)c(OC)c3)O2)cc(OC)c1OC (relative stereo) [Transdioxolane, Trans-2,4-bis(3,4,5-trimethoxyphenyl)dioxolane, reference compound]
- Apo A-I synthesis ([1]; 30 μM): 116 ± 7 (3) % of control
- Apo A-I synthesis ([1]; 100 μM): 157 ± 2 (3) % of control
- Apo(a) synthesis ([2]; 30 μM): 103 ± 9 (3) % of control
- Apo(a) synthesis ([2]; 100 μM): 60 ± 12 (3) % of control
- Apo B-100 synthesis ([3]; 30 μM): 117 ± 23 (3) % of control
- Apo B-100 synthesis ([3]; 100 μM): 105 ± 7 (3) % of control

Structure (SMILES): COc1cc([C@H]2CC[C@H](c3cc(OC)c(OC)c(OC)c3)O2)cc(OC)c1OC (relative stereo) [L-652,731, Trans-2,5-bis(3,4,5-trimethoxyphenyl)tetrahydrofuran, reference compound]
- Apo A-I synthesis ([1]; 100 μM): 134 ± 1 (2) % of control
- Apo(a) synthesis ([2]; 100 μM): 66 ± 8 (2) % of control
- Apo B-100 synthesis ([3]; 100 μM): 76 ± 35 (2) % of control

Structure (SMILES): Brc1nnc2n1-c1ccccc1C(c1ccccc1)=NC2 [Azepine 4]
- Apo A-I synthesis ([1]; 100 μM): 390 ± 40 (2) % of control
- Apo(a) synthesis ([2]; 100 μM): 62 ± 22 (2) % of control
- Apo B-100 synthesis ([3]; 100 μM): 95 ± 23 (2) % of control

Structure (SMILES): O=C(O)c1cccnc1 [nicotinic acid]
- Reduction of plasma levels of lp(a) ([4]; alone (4 g/day)): ~38%
- Reduction of plasma levels of lp(a) ([4]; in combination with neomycine (3 g/day and 2 g/day respectively)): ~45%

Structure (SMILES): CC1C(=O)OC2C(O)C34C5CC(C(C)(C)C)C36C(OC(=O)C6O)OC4(C(=O)O5)C12O (stereo not shown) [BN 52051, Ginkgolide B, reference compound]
- Apo A-I synthesis ([1]; 100 μM): 144 ± 34 (2) % of control
- Apo(a) synthesis ([2]; 100 μM): 101 ± 1 (2) % of control
- Apo B-100 synthesis ([3]; 100 μM): 113 ± 34 (2) % of control

Structure (SMILES): c1ccc(C2=NCc3nncn3-c3sccc32)cc1 [Azepine 2]
- Apo A-I synthesis ([1]; 30 μM): 178 (1) % of control
- Apo(a) synthesis ([2]; 30 μM): no change

Structure (SMILES): COc1cc([C@@H]2OC[C@H](c3cc(OC)c(OC)c(OC)c3)O2)cc(OC)c1OC (relative stereo) [Cisdioxolane, Cis-2,4-bis(3,4,5-trimethoxyphenyl)dioxolane, reference compound]
- Apo A-I synthesis ([1]; 100 μM): 229 ± 79 (2) % of control
- Apo(a) synthesis ([2]; 100 μM): 83 ± 2 (3) % of control
- Apo B-100 synthesis ([3]; 100 μM): 99 ± 21 (3) % of control

Structure (SMILES): CCCCCCCCCCCCCCCCCCNC(=O)OC[C@@H]1CC[C@H](COP(=O)([O-])OCC[n+]2cccc3ccccc32)O1 (relative stereo) [SRI 63-441, O-cis-5-(octadecylcarbamoyloxymethyl)-2-tetrahydrofurylmethyl O-(2-quinolinio-ethyl) hydrogen phosphate, reference compound]
- Apo A-I synthesis ([1]; 100 μM): 166 ± 6 (2) % of control
- Apo(a) synthesis ([2]; 100 μM): 24 ± 1 (2) % of control
- Apo B-100 synthesis ([3]; 100 μM): 142 ± 32 (2) % of control

Structure (SMILES): Cc1nnc2n1-c1sccc1C(c1ccccc1)=NC2 [Azepine 1]
- Apo(a) synthesis ([5]; 3 μM): 75 (1) % of control
- Apo(a) synthesis ([5]; 10 μM): 48 (1) % of control
- Apo(a) synthesis ([5]; 30 μM): 24 (1) % of control
- Apo(a) synthesis ([5]; 100 μM): 14 (1) % of control
- Apo A-I synthesis ([1]; 3 μM): 152 ± 30 (2) % of control
- Apo A-I synthesis ([1]; 10 μM): 185 ± 20 (6) % of control
- Apo A-I synthesis ([1]; 30 μM): 225 ± 45 (6) % of control
- Apo A-I synthesis ([1]; 100 μM): 367 ± 131 (6) % of control
- Apo(a) mRNA levels relative to GAPDH [6]: 39 ± 4 (3) % of control
- Apo(a) mRNA levels relative to actin [6]: 86 ± 7 (3) % of control
- Apo(a) mRNA levels relative to rRNA [6]: 56 ± 12 (3) % of control
- Apo(a) synthesis ([2]; 3 μM): 85 ± 5 (2) % of control
- Apo(a) synthesis ([2]; 10 μM): 76 ± 19 (6) % of control
- Apo(a) synthesis ([2]; 30 μM): 48 ± 28 (6) % of control
- Apo(a) synthesis ([2]; 100 μM): 34 ± 32 (6) % of control
- Apo A-I mRNA levels relative to GAPDH [7]: 147 ± 28 (3) % of control
- Apo A-I mRNA levels relative to actin [7]: 328 ± 7 (3) % of control
- Apo A-I mRNA levels relative to rRNA [7]: 229 ± 8 (3) % of control
- Apo(a) mRNA levels relative to GAPDH [8]: 24 (1) % of control
- Apo(a) mRNA levels relative to actin [8]: 44 (1) % of control
- Apo(a) mRNA levels relative to rRNA [8]: 67 (1) % of control
- Apo A-I mRNA levels relative to GAPDH [9]: 111 (1) % of control
- Apo A-I mRNA levels relative to actin [9]: 203 (1) % of control
- Apo A-I mRNA levels relative to rRNA [9]: 308 (1) % of control
- Apo B-100 synthesis ([3]; 3 μM): 117 ± 10 (2) % of control
- Apo B-100 synthesis ([3]; 10 μM): 113 ± 20 (6) % of control
- Apo B-100 synthesis ([3]; 30 μM): 106 ± 27 (6) % of control
- Apo B-100 synthesis ([3]; 100 μM): 95 ± 23 (6) % of control
- Apo B-100 synthesis ([10]; 3 μM): 83 ± 16 (2) % of control
- Apo B-100 synthesis ([10]; 10 μM): 112 ± 3 (2) % of control
- Apo B-100 synthesis ([10]; 30 μM): 109 ± 8 (2) % of control
- Apo B-100 synthesis ([10]; 100 μM): 114 ± 8 (2) % of control
- Apo A-I synthesis ([11]; 3 μM): 164 ± 61 (2) % of control
- Apo A-I synthesis ([11]; 10 μM): 283 ± 109 (2) % of control
- Apo A-I synthesis ([11]; 30 μM): 622 ± 228 (2) % of control
- Apo A-I synthesis ([11]; 100 μM): 721 ± 212 (2) % of control
